Assay results as given in patent publication US20040022726A1, “Methods and compositions for intravesical therapy of bladder cancer” (priority 2002, published 2004).
Numbered stars: 1 amine (or outer) side, 2 acyl side, 3 side chain; on linkers, the order of the positions; unused ones are H or OH. Square brackets hold non-standard residues; d marks the D form. Side chains are listed from the residue outwards. Peptide text beside a SMILES is read from it. * marks the point of attachment. DOTA = O=C(O)CN1CCN(CC(=O)O)CCN(CC(=O)*)CCN(CC(=O)O)CC1; NH(2-(imidazol-4-yl)ethyl) = c1ncc(CCN*)[nH]1; Suc = O=C(CCC(=O)[*:2])[*:1]

Tested on: superficial cancer of the urinary bladder
Settings: human, in vivo
Method: Antibody-Mediated Radioimmunotherapy Using a Beta-Emitting Radionuclide A patient with a superficial cancer of the urinary bladder is treated with a 1:1 molar mixture of the bispecific antibody hMN-14×679-F(ab′)2 [anti-CEA×anti-HSG] of example 1, and the carrier-free Y-90-IMP 241 bivalent hapten of example 3, above. The premixed radioimmunotherapy agent is introduced into the bladder via a urethral catheter inserted under local anesthetic. Prior to injection, the bladder is drained completely, and 70 mL of the complex in 70 mL 0.9% NaCl (comprising 20 mg of the bispecific antibody and 10 mCi of Y-90 conjugated to the bivalent hapten) are instilled and allowed 90 minutes to localize by binding to tumor tissue. The unbound radiolabeled is bispecific antibody mixture is then allowed to evacuate the bladder through the urethra, by washing out the bladder using 50 mL 0.9% NaCl, leaving the remaining administered radioactivity bound substantially only to tumor cells. Seventy-two hours later, the patient is taken to the operating room, where biopsies of macroscopically normal urothelium and bladder tumor are made. The urothelium is separated from the underlying mucularis layer and assayed in a beta scintillating counter to allow measurement of radioactivity in the tumor and in the normal tissue, and then the preparations were fixed in formalin for histopathological evaluation. […]

histology of normal urothelium: relatively intact normal urothelium
SMILES: NC(=O)[C@H](CCCCNC(=O)CNC(=O)CCC(=O)NCCc1cnc[nH]1)NC(=O)[C@@H](Cc1ccc(O)cc1)NC(=O)[C@H](CCCCNC(=O)CNC(=O)CCC(=O)NCCc1cnc[nH]1)NC(=O)[C@H](Cc1ccccc1)NC(=O)CN1CCN(CC(=O)O)CCN(CC(=O)O)CCN(CC(=O)O)CC1 [Y-90-IMP 241, metal not drawn] ({DOTA}-FK([Gly-Suc-NH(2-(imidazol-4-yl)ethyl)])[dY]K([Gly-Suc-NH(2-(imidazol-4-yl)ethyl)])-NH2)
